Source: US12350308B2, “Phosphorylcholine conjugates and uses thereof” (TPCERA LTD., priority 2013, dated 2025)
Where no end group is shown, it is not given here.

What was measured:
Tregs CD4+CD25+FOXP3+ = assay: T regulatory cell profiling by FACS in splenocytes of lupus mice (PC-tuftsin study); format: in vivo; conditions: PBS 4±0.6 percent
Procedure: Mice, from age of 14 weeks, received subcutaneously PC-tuftsin at the concentration of 50 μg/0.1 ml per mouse (treatment; n=10) or PBS (control; n=10), three times a week. In the cytokines studies, the relative mRNA expression levels of pro-inflammatory cytokine IFNγ and anti-inflammatory cytokine TGFβ were analyzed by real time RT-PCR using LightCycler (Roche). Total RNA was isolated from splenocytes and was reverse-transcribed into cDNA by using Moloney Murine Leukemia Virus Reverse Transcriptase (Promega). The resulting cDNA was subjected to real-time RT-PCR in the presence of specific primers, according to the manufacturer's instructions (Table 2). The relative expression levels of IFNγ and TGFβ were normalized to β-actin levels.
Finally, a T regulatory cell (Tregs) profiling assay was performed in isolated splenocytes incubated with the following antibodies: anti-CD4^+FITC, anti-CD25^+APC and anti-FOXP3^+PE (eBioscience) and analyzed by FACS. Forward and side scatter gates adjusted to include all cells and to exclude debris (Becton Dickinson). Cells were gated on CD4+ cells, and for intracellular staining, the cells were incubated with a fixation solution, washed and resuspended in permeabilization solution (Serotec). Isotype control was used as reference.

DBA/1 CIA mice = assay: Arthritis score in mice with established CIA (treatment from day 16); format: in vivo; conditions: for mean arthritis score: day 35, s.c. 3 times a week, PBS 13.8±0.45; for average arthritis score: time 0 (treatment initiation, day 16 after disease induction), baseline
Text: Rheumatoid Arthritis is a progressive joint deformation disease caused by severe inflammation. CIA mice were subjected to subcutaneous injections of TD-PC, tuftsin derivative (SEQ ID NO: 25), PC, a mix of TD and PC, or PBS, 3 times a week. […] Treatment started as day 16 after disease induction when disease symptoms were already notable. […] The significant reduction in arthritis score was illustrious from day 7 after treatment administration and lasted until day 35 (the day mice were sacrificed).

[1] = test system: splenocytes derived from CIA mice; assay: Cytokine secretion in-vitro by splenocytes of mice with established CIA; format: in vivo; conditions: splenocyte culture fluids; for mean IL-10 level: PBS 298; for mean IL-6 level: PBS 840; for mean IL-1β level: PBS 883; for mean TNF-α level: PBS 1073; for mean IL-17 level: PBS 2170
Procedure: Secretion, in-vitro, of pro-inflammatory and anti-inflammatory cytokines by splenocytes derived from CIA mice treated with TD-PC, PBS, TD, PC, TD+PC or untreated mice was evaluated (FIGS. 32A-32D). The following cytokines secretions were examined: pro-inflammatory IL-1β (FIG. 32A), IL-17 (FIG. 32B), IL-6 (FIG. 32C), TNF-α (FIG. 32D) and anti-inflammatory IL-10 (FIG. 32E).

[2] = test system: female NZBxW/F1 lupus prone mice; assay: Proteinuria onset and immune complex deposits in lupus prone mice treated with TD-PC; format: in vivo; conditions: s.c., prophylactic from week 14
Text: To examine the potential protective effect of TD-PC (SEQ ID NO: 25 conjugated to PC), female NZBxW/F1 lupus prone mice received subcutaneous injections (s.c) of the TD-PC conjugate, phosphorylcholine (PC), tuftsin derivative (SEQ ID NO: 25) or PBS (control) via a prophylactic protocol starting at week 14, before the clinical onset of lupus (n ¼ 15 per group).

CD4+CD25+FOXP3+ Tregs = assay: Treg expansion in spleen cells of lupus mice treated with TD-PC (FACS); format: in vivo; conditions: gating on CD4+ T cells; PBS 4%
Text: The percentage of CD4+CD25+FOXP3+ Tregs phenotype subset in spleen cells following treatment with TD-PC, tuftsin derivative (SEQ ID NO: 25), PC or PBS, is elucidated in FIGS. 25A-25B.

[3] = Dagan S et al., 1987; cited from earlier work
[4] = test system: splenocytes of NZBW/F1 female mice; assay: Cytokine secretion in-vitro by splenocytes of lupus mice treated with TD-PC; format: in vivo; conditions: vs PBS; for IL-17 secretion from splenocytes: in vitro; for IL-10 secretion by splenocytes / TGFβ production by splenocytes / reduction of splenocyte secretion of IFNγ: in-vitro
Procedure: NZBW/F1 female mice having lupus were treated with TD-PC (SEQ ID NO: 25 conjugated to PC) or the corresponding control treatments. Mice were sacrificed at week 30, and their splenocytes were studied in-vitro for the expression of pro-inflammatory cytokines (IFNγ, IL-17) and anti-inflammatory (TGFβ, IL-10) cytokines using RT-PCR. […] In contrast, TD-PC increased the mRNA expression of the anti-inflammatory cytokine TGFβ in the (p<0.001) compared to the mRNA expressed by splenocytes derived from PBS-treated mice (FIG. 24A).
However, a prominent increase in anti-inflammatory cytokines (TGFβ, IL-10) secretion in-vitro by splenocytes derived from TD-PC treated mice is illustrated in FIG. 24B. […] IFNγ secretion upon tuftsin derivative (SEQ ID NO: 25) or PC treatments was reduced by 2.5 and 1.5 times respectively (p<0.03 and p<0.04, respectively).

[5] = test system: IL-10+CD25+CD1d+ Breg cells; assay: Breg expansion in splenocytes of mice with established CIA (FACS); format: in vivo; conditions: isolated splenocytes; PBS 0.4%
Procedure: The mean percentage of Breg cells in isolated splenocytes following treatment with TD-PC, PBS, TD (SEQ ID NO: 25), PC, TD+PC and None was measured within IL-10+CD25+CD1d+ subset. […] Representative data of IL-10+CD25+CD1d+ levels in splenocytes derived from TD-PC, PBS, TD (SEQ ID NO: 25), PC and TD+PC treated mice gating on IL-10+ B cells, are presented in FIG. 34A.

NZBxW/F1 lupus mice [6] = assay: Survival of lupus mice treated with TD-PC (Kaplan-Meier); format: in vivo; conditions: already at week 24
Procedure: A main complication of lupus nephritis is a short survival time due to severe kidney failure. Therefore, the survival time of mice treated either with TD-PC or with PC, tuftsin derivative (SEQ ID NO: 25) or PBS (control) was analyzed.

NZBxW/F1 lupus mice [7] = assay: Circulating anti-dsDNA antibodies in lupus mice treated with TD-PC (ELISA); format: in vivo; conditions: sera at 30 weeks, dilution 1:800; between groups incl. PBS
Procedure: Titers of circulating anti-dsDNA antibodies in the sera of control and treated mice were monitored during the development of lupus, and their levels were measured every 3 weeks. […] FIG. 23 presents the anti dsDNA antibodies titers in the sera at the age 30 weeks at a dilution of 1:800.

[8] = test system: CD4+CD25+FOXP3+ Treg cells; assay: Treg expansion in splenocytes of mice with established CIA (FACS); format: in vivo; conditions: isolated splenocytes; PBS 1.4%
Text: The frequency of CD4+CD25+FOXP3+ Treg cells subset in isolated splenocytes from mice treated with TPC, PBS, TD (SEQ ID NO: 25), PC, TD+PC or untreated is elucidated in FIGS. 33A and 33B. […] Representative data of the CD4+CD25+FOXP3+ levels in splenocytes derived from TD-PC, PBS, TD (SEQ ID NO: 25), PC and TD+PC treated mice and the untreated group, gating on CD4+ T cells are presented in FIG. 33B.

Row | Molecule | enhancement in Tregs CD4+CD25+FOXP3+ expression level (Tregs CD4+CD25+FOXP3+) | mean arthritis score (DBA/1 CIA mice) | average arthritis score (DBA/1 CIA mice) | mean IL-10 level [1] [pg/mL] | mean IL-6 level [1] [pg/mL] | mean IL-1β level [1] [pg/mL] | mean TNF-α level [1] [pg/mL] | mean IL-17 level [1] [pg/mL] | immune complex (IC) deposits in the mesangium / nephritis class [2] | CD4+CD25+FOXP3+ Tregs in spleen cells (CD4+CD25+FOXP3+ Tregs) [%] | effect on disease progression [3] | IL-17 secretion from splenocytes [4] | IL-10 secretion by splenocytes [4] | TGFβ production by splenocytes [4] | reduction of splenocyte secretion of IFNγ [4] [times] | mean percentage of IL-10+CD25+CD1d+ Breg cells [5] | percentage of death number vs PBS injected mice (NZBxW/F1 lupus mice [6]) | titers of circulating anti-dsDNA antibodies (NZBxW/F1 lupus mice [7]) | mean percentage of CD4+CD25+FOXP3+ Treg cells [8] [%]
1 | C[N+](C)(C)CCOP(=O)(O)O [PC, phosphorylcholine] | did not cause any significant elevation | 14±0 | 3.4±1.1 | 300 | 795 | 860 | 1048 | 2179 | did not diminish the development of strong mesangial damage | 3 | inhibitory effect | to a lower extent | did not have any effect | minimal effect | 1.5 | 0.44% | significant difference | No statistically significant change | 0.81
2 | threonine-lysine-proline-arginine [tuftsin] | did not cause any significant elevation | – | – | – | – | – | – | – | – | – | – | – | – | – | – | – | – | – | –
3 | TKPRGY [TD] | – | 13.8±0.45 | 4.6±1.5 | 304 | 778 | 896 | 1079 | 2217 | moderate but not significant effect | 8 | – | Less significant inhibition | increased IL-10 secretion by splenocytes in-vitro but less significant | moderately enhanced | 2.5 | 0,5% | significant difference | No statistically significant change | 0.52
